melting point | Compound
75 to 76 °C | O=C(O)CCCOc1ccccc1OCc1ccccc1
147 to 148 °C | COc1cccc(N2CCN(C(=O)[C@](C)(C#N)[C@H](c3ccccc3OC)c3cccc4ccccc34)CC2)c1
64 to 70 °C | COC(=O)c1cc(CBr)cc(CBr)c1
141 °C | Cc1nc(N)sc1S(=O)(=O)N(CCO)CCO
175 to 176 °C | O=[N+]([O-])c1ccc(OCc2cscn2)cc1
223 to 227 °C | CN(C)c1ccc(-c2cc(=O)c(C(=O)O)cn2-c2ccc(O)c(O)c2)cc1
190 to 192 °C | CCOC(=O)C(=NOC)C(C)=NNC(C)=O
130 to 135 °C | NC(=O)c1cccc(CN2C(=O)C3(COc4cc5c(cc43)OCCO5)c3ccccc32)c1 (stereo not drawn)
123 °C | Cc1cccc(N2CCN(c3ccc(Oc4ccccc4)nn3)CC2)c1
103 to 106 °C | COC(=O)C(=[N+]=[N-])c1ccc(S(C)(=O)=O)c(Cl)c1
218 to 219 °C | C#CC1(OC(C)=O)C(COC(=O)c2ccc(Cl)cc2)OC(n2ccc(=O)[nH]c2=O)C1OC(C)=O (stereo not drawn)
140 to 142 °C | CCOC(=O)C1=C(C)N(C(C)=O)C(c2csc(C)n2)=NC1c1ccccc1 (stereo not drawn)
48 to 49 °C | Cc1ncnc(C)c1C(=O)N1CC2CN(CCC(NC(=O)C3CCCC3)c3ccccc3)CC2C1 (stereo not drawn)
113 to 114 °C | CC(C)[C@@H](CO)C[C@H](O)[C@H](CC1CCCCC1)NC(=O)OCc1ccccc1
80 to 82 °C | COc1c(OCC(F)(F)F)ccnc1CSc1nc2ccc(C(F)(F)F)cc2[nH]1
135 to 138 °C | CN(O)C(=O)c1ccc(C=Cc2ccccn2)cc1
63.5 to 65.5 °C | CCN(CC)C(=O)c1c(C=O)cccc1[Si](C)(C)C
265 to 267 °C | Cc1ccc2nc3c(nc2c1)SC(=C(C#N)C#N)S3
85 to 96 °C | COc1cc(C2CCN(C[C@H](Oc3ncc4ccc(-c5ccccc5N(C)S(C)(=O)=O)n4n3)C(F)(F)F)CC2)ccc1N
77.5 °C | CC#CCOc1cc(N(C)c2cccc(F)c2F)ncn1
118 to 120 °C | Cc1ccc(S(=O)(=O)NCCc2cccc(OCC(=O)NCc3ccccc3)c2)cc1
116 to 117 °C | O=C(NC1CC1)C(O)=CC(=O)c1ccc(Cc2ccc(F)cc2)o1
140 °C | Cc1ccccc1N(CC(=O)OC(C)(C)C)C(=O)CN1C(=O)c2ccccc2C1=O
78 to 79 °C | O=C(Cl)COc1nn(Cc2ccccc2)c2ccccc12

melting point | Compound
189 to 191 °C | COc1ccc(CNC(=O)c2cc([N+](=O)[O-])ccc2N)cc1
83 to 85 °C | COc1ccc2nc(NC(=O)C(CC3CCCC3)c3ccc(S(=O)(=O)N(C(C)C)C(C)C)cc3)sc2n1 (stereo not drawn)
69 to 71 °C | CCCCCCCCCC(=O)Oc1ccc2c(N3CCN(CCCC(=O)c4ccc(F)cc4)CC3)noc2c1
145 to 149 °C | CCOC(=O)OC1=C([C@H]2CC[C@H](c3ccc(Cl)cc3)CC2)C(=O)c2ccccc2C1=O
136 to 140 °C | CC(C)(C)c1ccn(-c2ccc(C(=O)c3cccc4c3Nc3ncccc3CN4)c(C(F)(F)F)c2)n1
80 to 85 °C | COC(=O)C(=CNc1cc(-c2ccccc2Cl)sc1C(=O)O)SC
141 to 143 °C | FC(F)(F)c1ccc(COc2ccnc(CSc3nc4cscc4[nH]3)c2)cc1
241 to 242 °C | CCCOc1cc(S(C)(=O)=O)ccc1-c1ccc(C#N)c(=O)[nH]1
208 to 210 °C | COc1ncccc1Nc1c(NC(NC(=O)c2cccc(Cl)c2)C(C)(C)C)c(=O)c1=O (stereo not drawn)
144 to 146 °C | N#CN1CCC(c2nn(C(=O)c3ccccc3)c3ccccc23)CC1
46 to 48 °C | CCOc1ccc(C(=O)OC)c(Cl)n1
83 to 85 °C | CCOC(=O)CCCOc1ccc(C=Cc2ccncc2)cc1
79 to 81 °C | Nc1ccc(CCc2nc3ccccc3s2)cc1
> 300 °C | O=c1c2cccnc2[nH]c2ccnn12
97 to 99 °C | COc1ccc2c(c1)C(CC#N)C(=O)CC2 (stereo not drawn)
156 to 157 °C | CC(=O)N[C@@H]1[C@@H](CC2CO2)CC(C(=O)O)=C[C@H]1OC(C)C (stereo partly drawn)
106 to 107 °C | Clc1ccc2c(c1)C(Br)Cn1cccc1S2 (stereo not drawn)
67 to 69 °C | Nc1cc(Br)ccc1-c1ccc(F)cc1F
184 to 187 °C | CC(O)c1cc(I)cc(S(N)(=O)=O)c1 (stereo not drawn)
216 to 218 °C | CN(c1ccc(S(C)(=O)=O)cc1)S(=O)(=O)c1cccc(NC(=O)c2ccc(Br)cc2)c1
250 to 251 °C | COC1CCN(c2cc3c(cc2C#Cc2ccccc2)NC(=O)CC(c2cccc(C#N)c2)=N3)CC1
69 to 71 °C | COc1ccc(F)cc1C(C)(C)CC(O)(CN1CC(=O)Nc2ccccc21)C(F)(F)F (stereo not drawn)
99 to 100 °C | N#CCc1ccc(OCc2ccccc2)cc1OCc1ccccc1
117 to 120 °C | O=[N+]([O-])c1ccc(NS(=O)(=O)C(F)(F)F)c(Oc2ccc3ccccc3c2)c1

melting point | Compound
140 to 141 °C | CC(C)(C)OC(=O)NC(Cc1ccccc1)C(O)CNCC(O)C(Cc1ccccc1)NC(=O)SC(C)(C)C (stereo not drawn)
188 to 190 °C | O=[N+]([O-])c1cnc(Sc2nnc(O)n2-c2ccccc2)s1
> 225 °C | O=C1NC(=S)SC1=Cc1ccc(OCc2ccccc2-c2ccccc2C(=O)O)cc1
88 to 90 °C | CCCCCCCCCCCCCCCCCC(c1ccc(O)cc1)c1ccc(O)cc1
224 to 226 °C | COc1ccc(C2(O)CC=C(c3ccncc3)N(C)C2=O)cc1 (stereo not drawn)
133 to 134 °C | Cc1cc(CC(C)(C)CO)cc(C)c1O
110 to 113 °C | CCC(CC)n1ncn(-c2ccc(N3CCN([C@H](C)[C@@](O)(Cn4cncn4)c4ccc(F)cc4F)CC3)cc2)c1=O
183 °C | Nn1c(C2CC2)n[nH]c1=O
127 to 130 °C | CS(=O)(=O)c1cc(C(=O)NCCN2CCOCC2)c(NCc2ccco2)cc1Cl
110 to 114 °C | CCN(CC)CCNC(=O)c1cc(Cl)c(N)cc1OCCS(C)=O (stereo not drawn)
283 to 284 °C | Nc1ccccc1Sc1cccc2c1C(=O)c1cccc(Sc3ccccc3N)c1C2=O
233 to 234 °C | CC12CCC(=O)C=C1CCC1C2CCC2(C)C1CCC2(O)C(N)=O (stereo not drawn)
221 to 223 °C | CC(C)n1nc(-c2cc(NC(=O)OC(C)(C)C)cnc2-c2ccccc2)ccc1=O
116 to 118 °C | Nc1nc(CC(=O)Nc2cccc(C(F)(F)F)c2)cs1
235 °C | O=C(Nc1nc(C(F)(F)F)co1)C1c2ccccc2Oc2ccc(Cl)cc21 (racemic)
227 to 229 °C | CCc1cn(C2CC(O)C(CCCNC(=O)Cc3c(Cl)cccc3Cl)O2)c(=O)[nH]c1=O (stereo not drawn)
251 to 253 °C | NC(=O)c1c(-c2cccc(F)c2)c(Cl)n2c1CN(C(=O)N[C@H]1CC[C@H](O)CC1)CC2
60 to 63 °C | CS(=O)(=O)c1ccc(-c2cc(C(=O)CCCO)nn2-c2ccc(C(F)(F)F)cc2)cc1
48 to 50 °C | CCOC(=O)CCc1cc(C(=O)c2cccc(C(=O)OCC)c2)ccc1/C=C\CCCCO
80 to 81 °C | CCOC(=O)c1ccnc(OCc2nc(-c3ccco3)oc2C)c1
59 to 61 °C | CCOC(=O)c1ccc(CCNS(=O)(=O)C=Cc2ccccc2)cc1
83.5 to 84.5 °C | CCOC(=O)CC(NC(=O)c1ccc(C)cc1)C(=O)c1ccco1 (stereo not drawn)
149 to 150 °C | COc1cc(C)c2c(c1)C(C(=O)O)=CCC2
198 to 201 °C | COc1cc(OC)nc(Oc2ccc3c(c2C(=O)O)OCO3)n1

melting point | Compound
119 to 121 °C | N#Cc1cnc2n(c1=O)CCC2
41 to 43 °C | CCOC(=O)CC(=O)Sc1cc(Cl)c(Cl)cc1Cl
105 to 107 °C | CC(C)(C)OC(=O)NCCSc1cccc2nccn12
95 to 105 °C | CCOCCCC1(O)c2ccccc2C=Cc2ccc(I)cc21 (stereo not drawn)
175 to 176 °C | CC(c1ccccc1)n1ncc(-c2nc(-c3ccco3)n[nH]2)c1N (stereo not drawn)
119 to 121 °C | CCCN(CCC)c1c([N+](=O)[O-])cc(S(=O)(=O)N(C)SC)cc1[N+](=O)[O-]
> 250 °C | CS(=O)(=O)Nc1cc2occ(S(C)(=O)=O)c(=O)c2cc1Oc1ccccc1
151 °C | O=C(NCCO)c1cc(C(=O)NCCO)cc([N+](=O)[O-])c1
34 °C | CCOC(=O)c1ccc(NC2CCCc3ccccc32)cc1 (stereo not drawn)
182 to 186 °C | CC1(C(=O)C(C(O)C(Cl)(Cl)CCl)n2cncn2)CC1 (stereo not drawn)
238 to 240 °C | O=C(Nc1cccc2c(=O)cc(-c3nnnn3O)oc12)c1ccc(OCCCCc2ccccc2)cc1
91 °C | CC(=O)N1CCCC2(Cc3ccc(Br)cc3)C(=O)N(c3cc(Cl)nc(Cl)c3)C(=O)N12 (stereo not drawn)
118 to 120 °C | CCOC(=O)c1cc(CCc2cc3c(s2)-n2c(C)nnc2CN=C3c2ccccc2Cl)ccc1CC(=O)Nc1cccc(/C=C/c2nc(C3CCC3)cs2)c1
150 to 155 °C | ON=C1CCc2cc(F)ccc21
128 to 130 °C | NC(=O)c1cccc(-c2cc(OC(=O)NC3CCCCC3)ccc2O)c1
151 to 152 °C | CCOC(=O)C1CC(O)c2cc3c(cc2C1c1cc(OC)c(OC)c(OC)c1)OCO3 (stereo not drawn)
116 to 118 °C | Cc1ccc(C(=O)O)c(OCc2ccc(OCCc3nc(-c4ccccc4)oc3C)cc2)c1
249 °C | CC(C)(C)OC(=O)n1cnc2c([N+](=O)[O-])cccc21
187 to 190 °C | COc1cc(Nc2nc3cccc(-c4ccc5ncccc5c4)c3o2)cc(OC)c1OC
59 to 61 °C | COC(=O)c1ccc(-n2ccc(C)n2)cc1C(F)(F)F
78 to 80 °C | CCCN(CCC)C(Cc1cccc2[nH]cnc12)C(=O)OCC (stereo not drawn)
75 to 77 °C | COc1cccc(C23CCCC2C(=O)N(Cc2ccccc2)C(=O)C3)c1 (stereo not drawn)
219 to 222 °C | COc1ccc(-c2cc(=O)c3c(O)cc(O)c(-c4cc(-c5cc(=O)c6c(O)cc(O)cc6o5)ccc4OC)c3o2)cc1

Compound | melting point
CCCCCN(C)C12CN3CN(CN(C3)C1)C2 | 30 to 31 °C
CCOC(=O)c1ncn2c1CN=C(NCC(OC)OC)c1ccccc1-2 | 121 to 122 °C
O=C(Nc1nncs1)C(=O)c1cn(Cc2ccc(F)cc2)c2ccccc12 | 218 to 220 °C
